Measured values as given in US9382228B2 (priority 2013, dated 2016).
pIC50: −log10 of the molar value.

How the values were obtained:
[1] = target: unphosphorylated PDGFRβ kinase (uPDGFRβ, Seq. ID No. 3) (Homo sapiens, UniProt P09619); assay: biochemical; conditions: for pIC50: uPDGFRb, enzymatic assay, ATP 500 μM
[2] = tested on: M-NFS-60 cells; assay: cells; conditions: 67 h, read-out: M-NFS-60 cell proliferation
Description: M-NFS-6 Cell Proliferation Assay
A serial dilution of test compound was dispensed into a 384-well black clear bottom plate (Corning, Corning, N.Y.). Two thousand five hundred cells were added per well in 50 μL complete growth medium. […] IC50 values were calculated from a series of percent inhibition values determined at a range of inhibitor concentrations using software routines as implemented in the GraphPad Prism software package.

[3] = tested on: phospho-FMS in THP-1 cells; assay: cells; conditions: Homo sapiens, THP-1, read-out: pFMS inhibition in THP-1 cells
[4] = tested on: osteoclast precursors; assay: cells; assay type: cell-based; conditions: read-out: Osteoclast assay
[5] = target: unphosphorylated c-KIT kinase (uKIT, Seq. ID no. 2) (Homo sapiens, UniProt P10721); assay: biochemical; conditions: for pIC50: uKIT, enzymatic assay, ATP 2000 μM
Description: uKit kinase (Seq. ID No. 2) Assay
In this assay, the oxidation of NADH (thus the decrease at A340 nm) was continuously monitored spectrophometrically. […] The inhibition reaction was started by mixing serial diluted test compound with the above reaction mixture. The absorption at 340 nm was monitored continuously for 4 hours at 30° C. on Synergy 2 plate reader (BioTech).

[6] = target: T1, unphosphorylated c-FMS kinase (uFMS, Seq. ID no. 1) (Homo sapiens, UniProt P07333); assay: biochemical; conditions: for pIC50: uFMS, enzymatic assay, ATP 500 μM
T1 sequence (P07333 538-972): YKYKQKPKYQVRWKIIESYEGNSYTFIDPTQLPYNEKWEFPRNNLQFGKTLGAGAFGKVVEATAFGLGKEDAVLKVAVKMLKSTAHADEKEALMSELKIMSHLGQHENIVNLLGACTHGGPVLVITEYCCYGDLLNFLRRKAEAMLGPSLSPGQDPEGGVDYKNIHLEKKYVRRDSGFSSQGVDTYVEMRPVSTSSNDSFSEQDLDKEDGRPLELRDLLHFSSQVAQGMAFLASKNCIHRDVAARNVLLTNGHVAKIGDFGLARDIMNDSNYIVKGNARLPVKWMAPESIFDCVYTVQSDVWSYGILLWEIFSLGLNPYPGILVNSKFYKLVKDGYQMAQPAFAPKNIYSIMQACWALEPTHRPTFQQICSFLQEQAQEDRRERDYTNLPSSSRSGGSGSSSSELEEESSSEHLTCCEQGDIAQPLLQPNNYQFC

Sequence of unphosphorylated PDGFRβ kinase (uPDGFRβ, Seq. ID No. 3) (P09619 557-1106): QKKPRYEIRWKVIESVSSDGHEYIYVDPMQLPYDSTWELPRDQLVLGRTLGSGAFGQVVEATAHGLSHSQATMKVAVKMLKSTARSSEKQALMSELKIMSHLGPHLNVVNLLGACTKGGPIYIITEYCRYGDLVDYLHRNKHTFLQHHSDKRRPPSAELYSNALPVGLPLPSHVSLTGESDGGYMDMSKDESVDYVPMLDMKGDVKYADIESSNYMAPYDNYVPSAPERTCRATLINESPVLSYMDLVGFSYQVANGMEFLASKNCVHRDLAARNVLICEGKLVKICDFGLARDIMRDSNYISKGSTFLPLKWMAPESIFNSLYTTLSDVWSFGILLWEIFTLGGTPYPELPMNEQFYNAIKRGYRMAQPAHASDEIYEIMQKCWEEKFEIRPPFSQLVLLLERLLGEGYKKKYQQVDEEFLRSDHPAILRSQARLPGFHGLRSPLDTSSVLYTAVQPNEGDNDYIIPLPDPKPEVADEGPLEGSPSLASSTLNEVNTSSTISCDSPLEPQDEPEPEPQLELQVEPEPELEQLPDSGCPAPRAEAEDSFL
Sequence of unphosphorylated c-KIT kinase (uKIT, Seq. ID no. 2) (P10721 with tags, fused parts or gaps): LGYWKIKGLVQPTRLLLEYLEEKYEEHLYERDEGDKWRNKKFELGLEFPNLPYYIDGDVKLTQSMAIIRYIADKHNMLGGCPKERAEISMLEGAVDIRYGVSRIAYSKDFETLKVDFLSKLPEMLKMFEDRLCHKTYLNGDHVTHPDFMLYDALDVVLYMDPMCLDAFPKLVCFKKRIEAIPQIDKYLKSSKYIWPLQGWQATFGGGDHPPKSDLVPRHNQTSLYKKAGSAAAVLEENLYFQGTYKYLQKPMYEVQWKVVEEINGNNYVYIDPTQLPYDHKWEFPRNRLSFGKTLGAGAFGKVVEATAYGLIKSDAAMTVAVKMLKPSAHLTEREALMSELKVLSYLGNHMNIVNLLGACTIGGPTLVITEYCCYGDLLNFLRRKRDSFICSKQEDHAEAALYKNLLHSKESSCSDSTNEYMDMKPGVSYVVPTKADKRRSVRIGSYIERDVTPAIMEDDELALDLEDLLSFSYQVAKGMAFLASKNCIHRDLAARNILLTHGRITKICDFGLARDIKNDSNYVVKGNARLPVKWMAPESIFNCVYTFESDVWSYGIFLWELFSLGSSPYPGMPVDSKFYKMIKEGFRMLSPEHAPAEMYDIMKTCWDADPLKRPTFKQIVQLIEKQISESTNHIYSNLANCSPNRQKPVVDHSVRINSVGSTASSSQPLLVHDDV

pIC50 [1] | pIC50 [3] | pIC50 [4] | pIC50 [5] | pIC50 [6] | IC50 ([1]; IC50 (nM) uPDGFRβ, Table 3) [nM] | IC50 ([5]; IC50 (nM) uKIT, Table 3) [nM] | IC50 ([6]; IC50 (nM) uFMS, Table 3) [nM] | SMILES | pIC50 [2]
6.00 to 7.00 | > 8.00 | > 8.00 | < 6.00 | > 8.00 | – | – | – | COC(C)(C)C(=O)NC(=O)Nc1ccc(Oc2ccnc(-c3ccc(C)nc3)c2)cn1 [Example 72, 2-methoxy-2-methyl-N-((5-((6′-methyl-[2,3′-bipyridin]-4-yl)oxy)pyridin-2-yl)carbamoyl)propanamide] | 7.00 to 8.00
6.00 to 7.00 | > 8.00 | > 8.00 | < 6.00 | > 8.00 | – | – | – | Cc1ccc(-c2cc(Oc3ccc(NC(=O)NC(=O)C(C)(C)C)nc3)ccn2)cn1 [Example 73, N-((5-((6′-methyl-[2,3′-bipyridin]-4-yl)oxy)pyridin-2-yl)carbamoyl)pivalamide] | 7.00 to 8.00
6.00 to 7.00 | > 8.00 | > 8.00 | 6.00 to 7.00 | > 8.00 | – | – | – | CC(C)C(=O)NC(=O)Nc1ccc(Oc2ccnc(-c3ccc(C4CCN(C)CC4)cc3)c2)cn1 [Example 75, N-((5-((2-(4-(1-methylpiperidin-4-yl)phenyl)pyridin-4-yl)oxy)pyridin-2-yl)carbamoyl)isobutyramide] | > 8.00
< 6.00 | 6.00 to 7.00 | 7.00 to 8.00 | < 6.00 | > 8.00 | – | – | – | CCc1nc(NC(=O)NC(=O)C2CCOCC2)ccc1Oc1ccnc(-c2cnn(C)c2)c1 [Example 83, N-((6-ethyl-5-((2-(1-methyl-1H-pyrazol-4-yl)pyridin-4-yl)oxy)pyridin-2-yl)carbamoyl)tetrahydro-2H-pyran-4-carboxamide] | 7.00 to 8.00
6.00 to 7.00 | > 8.00 | > 8.00 | 6.00 to 7.00 | > 8.00 | – | – | – | Cc1cc(NC(=O)NC(=O)C(C)(C)C)ncc1Oc1ccnc(-c2cnn(C)c2)c1 [Example 84, N-((4-methyl-5-((2-(1-methyl-1H-pyrazol-4-yl)pyridin-4-yl)oxy)pyridin-2-yl)carbamoyl)pivalamide] | > 8.00
< 6.00 | > 8.00 | 7.00 to 8.00 | < 6.00 | > 8.00 | – | – | – | Cc1ncc(-c2cc(Oc3ccc(NC(=O)NC(=O)C(C)(C)C)nc3C)ccn2)s1 [Example 86, N-((6-methyl-5-((2-(2-methylthiazol-5-yl)pyridin-4-yl)oxy)pyridin-2-yl)carbamoyl)pivalamide] | > 8.00
6.00 to 7.00 | > 8.00 | > 8.00 | 7.00 to 8.00 | > 8.00 | – | – | – | COC(C)(C)C(=O)NC(=O)Nc1cc(C)c(Oc2ccnc(-c3cnn(C)c3)c2)cn1 [Example 91, 2-methoxy-2-methyl-N-((4-methyl-5-((2-(1-methyl-1H-pyrazol-4-yl)pyridin-4-yl)oxy)pyridin-2-yl)carbamoyl)propanamide] | > 8.00
6.00 to 7.00 | > 8.00 | > 8.00 | 6.00 to 7.00 | > 8.00 | – | – | – | Cc1nc(NC(=O)NC(=O)C2(C)CCC2)ccc1Oc1ccnc(-c2cnn(C)c2)c1 [Example 92, 1-methyl-N-((6-methyl-5-((2-(1-methyl-1H-pyrazol-4-yl)pyridin-4-yl)oxy)pyridin-2-yl)carbamoyl)cyclobutanecarboxamide] | > 8.00
< 6.00 | > 8.00 | > 8.00 | < 6.00 | 7.00 to 8.00 | – | – | – | CC(C)(C)C(=O)NC(=O)Nc1ccc(Oc2ccnc(-c3cnco3)c2)cn1 [Example 93, N-((5-((2-(oxazol-5-yl)pyridin-4-yl)oxy)pyridin-2-yl)carbamoyl)pivalamide] | 7.00 to 8.00
6.00 to 7.00 | > 8.00 | 7.00 to 8.00 | < 6.00 | > 8.00 | 366 | 4000 | 4 | Cc1cn(-c2cc(Oc3ccc(NC(=O)NC(=O)C(C)(C)C)nc3)ccn2)cn1 [Example 99, N-((5-((2-(4-methyl-1H-imidazol-1-yl)pyridin-4-yl)oxy)pyridin-2-yl)carbamoyl)pivalamide] | 7.00 to 8.00
6.00 to 7.00 | > 8.00 | 7.00 to 8.00 | < 6.00 | 7.00 to 8.00 | – | – | – | Cc1ccc(-c2cc(Oc3ccc(NC(=O)NC(=O)C4CCOCC4)nc3)ccn2)cn1 [Example 103, N-((5-((6′-methyl-[2,3′-bipyridin]-4-yl)oxy)pyridin-2-yl)carbamoyl)tetrahydro-2H-pyran-4-carboxamide] | 7.00 to 8.00
< 6.00 | > 8.00 | > 8.00 | < 6.00 | > 8.00 | – | – | – | Cn1cnc(-c2cc(Oc3ccc(NC(=O)NC(=O)C(C)(C)C)nc3)ccn2)c1 [Example 104, N-((5-((2-(1-methyl-1H-imidazol-4-yl)pyridin-4-yl)oxy)pyridin-2-yl)carbamoyl)pivalamide] | > 8.00
< 6.00 | 7.00 to 8.00 | 7.00 to 8.00 | < 6.00 | 7.00 to 8.00 | – | – | – | Cc1nc(NC(=O)NC(=O)C(C)(C)C)ccc1Oc1ccnc(-c2ccc(C#N)nc2)c1 [Example 107, N-((5-((6′-cyano-[2,3′-bipyridin]-4-yl)oxy)-6-methylpyridin-2-yl)carbamoyl)pivalamide] | 6.00 to 7.00
6.00 to 7.00 | 7.00 to 8.00 | > 8.00 | 6.00 to 7.00 | > 8.00 | – | – | – | CCOC(C)(C)C(=O)NC(=O)Nc1ccc(Oc2ccnc(-c3cnn(C)c3)c2)cn1 [Example 123, 2-ethoxy-2-methyl-N-((5-((2-(1-methyl-1H-pyrazol-4-yl)pyridin-4-yl)oxy)pyridin-2-yl)carbamoyl)propanamide] | 7.00 to 8.00
< 6.00 | 7.00 to 8.00 | 7.00 to 8.00 | < 6.00 | > 8.00 | – | – | – | CCOC(C)(C)C(=O)NC(=O)Nc1ccc(Oc2ccnc(-c3cnc(C)s3)c2)cn1 [Example 124, 2-ethoxy-2-methyl-N-((5-((2-(2-methylthiazol-5-yl)pyridin-4-yl)oxy)pyridin-2-yl)carbamoyl)propanamide] | 7.00 to 8.00
< 6.00 | 7.00 to 8.00 | > 8.00 | < 6.00 | > 8.00 | – | – | – | CC(C)(C)C(=O)NC(=O)Nc1ccc(Oc2ccnc(-c3cncs3)c2)cn1 [Example 125, N-((5-((2-(thiazol-5-yl)pyridin-4-yl)oxy)pyridin-2-yl)carbamoyl)pivalamide] | 6.00 to 7.00
7.00 to 8.00 | 7.00 to 8.00 | > 8.00 | 6.00 to 7.00 | > 8.00 | – | – | – | COC1(C(=O)NC(=O)Nc2ccc(Oc3ccnc(-c4ccc(C)nc4)c3)cn2)CC1 [Example 126, 1-methoxy-N-((5-((6′-methyl-[2,3′-bipyridin]-4-yl)oxy)pyridin-2-yl)carbamoyl)cyclopropanecarboxamide] | 7.00 to 8.00
6.00 to 7.00 | 7.00 to 8.00 | > 8.00 | 6.00 to 7.00 | > 8.00 | – | – | – | CCOC(C)(C)C(=O)NC(=O)Nc1ccc(Oc2ccnc(-c3cnn(C)c3)c2)c(C)n1 [Example 127, 2-ethoxy-2-methyl-N-((6-methyl-5-((2-(1-methyl-1H-pyrazol-4-yl)pyridin-4-yl)oxy)pyridin-2-yl)carbamoyl)propanamide] | 7.00 to 8.00
< 6.00 | > 8.00 | 7.00 to 8.00 | < 6.00 | 7.00 to 8.00 | – | – | – | COC(C)(C)C(=O)NC(=O)Nc1ccc(Oc2ccnc(-n3cnc(C)c3)c2)cn1 [Example 130, 2-methoxy-2-methyl-N-((5-((2-(4-methyl-1H-imidazol-1-yl)pyridin-4-yl)oxy)pyridin-2-yl)carbamoyl)propanamide] | 7.00 to 8.00
< 6.00 | > 8.00 | 7.00 to 8.00 | < 6.00 | > 8.00 | – | – | – | Cc1nc(NC(=O)NC(=O)C(C)(C)C)ccc1Oc1ccnc(-c2cncs2)c1 [Example 131, N-((6-methyl-5-((2-(thiazol-5-yl)pyridin-4-yl)oxy)pyridin-2-yl)carbamoyl)pivalamide] | 7.00 to 8.00
6.00 to 7.00 | > 8.00 | > 8.00 | < 6.00 | > 8.00 | – | – | – | COC(C)(C)C(=O)NC(=O)Nc1ccc(Oc2ccnc(-c3cn(C)cn3)c2)cn1 [Example 132, 2-methoxy-2-methyl-N-((5-((2-(1-methyl-1H-imidazol-4-yl)pyridin-4-yl)oxy)pyridin-2-yl)carbamoyl)propanamide] | 7.00 to 8.00
< 6.00 | 7.00 to 8.00 | > 8.00 | < 6.00 | 7.00 to 8.00 | – | – | – | Cc1cn(-c2cc(Oc3ccc(NC(=O)NC(=O)C4(C)CC4)nc3C)ccn2)cn1 [Example 135, 1-methyl-N-((6-methyl-5-((2-(4-methyl-1H-imidazol-1-yl)pyridin-4-yl)oxy)pyridin-2-yl)carbamoyl)cyclopropanecarboxamide] | 7.00 to 8.00
